pIC50, pKi: −log10 of the molar value. Where two headings read alike, the source gives them in different places.
What was measured:
[1] = target: T1, α1B adrenoceptors (Rattus norvegicus, UniProt P15823); assay: Binding of [3H]-prazosin to α1B adrenoceptors (rat liver membranes); details: for IC50: read-out: log CI50 ± EPM (converted); for affinity range for α1B adrenoceptor: in words
T1 construct: from tissue; host or cells: rat liver membranes
T1 sequence (P15823 1-515): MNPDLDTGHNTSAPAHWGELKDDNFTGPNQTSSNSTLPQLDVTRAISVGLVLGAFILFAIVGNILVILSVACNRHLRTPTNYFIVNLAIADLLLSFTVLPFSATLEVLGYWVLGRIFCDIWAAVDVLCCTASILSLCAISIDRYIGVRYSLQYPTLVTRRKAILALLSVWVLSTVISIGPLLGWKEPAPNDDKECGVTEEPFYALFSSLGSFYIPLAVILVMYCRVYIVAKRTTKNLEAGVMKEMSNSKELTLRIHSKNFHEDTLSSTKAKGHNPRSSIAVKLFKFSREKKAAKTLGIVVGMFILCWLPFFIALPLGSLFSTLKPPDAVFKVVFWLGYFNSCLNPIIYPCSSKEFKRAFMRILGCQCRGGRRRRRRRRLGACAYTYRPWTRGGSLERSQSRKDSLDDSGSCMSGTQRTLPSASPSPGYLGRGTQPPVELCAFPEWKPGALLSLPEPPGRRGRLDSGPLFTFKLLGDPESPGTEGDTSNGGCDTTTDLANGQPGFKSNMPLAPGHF
Method: Following the protocol described previously in the literature membrane preparations from rat liver homogenates were obtained. Such membrane preparations are enriched in the adrenoceptor subtype α1B. The tissues obtained as described above (4 Rat livers corresponding to ˜30 g) were thawed and homogenized perforated similarly performed for rabbit liver. The homogenate obtained was filtered through four layers of gauze and then subjected to centrifugation 5,000×g for 20 minutes at 4° C., yielding a supernatant which was subsequently ultracentrifuged at 100,000×g for 60 minutes at 4° C., obtaining a pellet. This pellet was resuspended in buffer free of NaCl and subjected to a further […] under the same conditions.
Binding assays were standardized for α1B adrenoceptors in the same way adrenoceptor binding assays for α1A according to the literature, i.e. saturation and competition assays were performed on membrane preparations from rat liver, in this case using […] protein per tube contained […] suspension, in addition to various concentrations of LDT's (10^−9-10^−6 M).

[2] = target: T2, α1D adrenoceptors (Rattus norvegicus, UniProt P23944); assay: Phenylephrine-induced contraction inhibition in rat aorta (isometric contraction, Schild KB); assay type: cell-based; parameters: CR: concentration ratio CR = EC′50/EC50 (with/without antagonist); details: for Kb / log KB ± EPM (M): Schild equation; for CR ± EPM: ratio of EC50 in presence and absence of test substance
T2 construct: the rat thoracic aorta corresponds to a tissue expressing mainly α1D-adrenoceptors; from tissue; host or cells: rat thoracic aorta rings
T2 sequence (P23944 1-561): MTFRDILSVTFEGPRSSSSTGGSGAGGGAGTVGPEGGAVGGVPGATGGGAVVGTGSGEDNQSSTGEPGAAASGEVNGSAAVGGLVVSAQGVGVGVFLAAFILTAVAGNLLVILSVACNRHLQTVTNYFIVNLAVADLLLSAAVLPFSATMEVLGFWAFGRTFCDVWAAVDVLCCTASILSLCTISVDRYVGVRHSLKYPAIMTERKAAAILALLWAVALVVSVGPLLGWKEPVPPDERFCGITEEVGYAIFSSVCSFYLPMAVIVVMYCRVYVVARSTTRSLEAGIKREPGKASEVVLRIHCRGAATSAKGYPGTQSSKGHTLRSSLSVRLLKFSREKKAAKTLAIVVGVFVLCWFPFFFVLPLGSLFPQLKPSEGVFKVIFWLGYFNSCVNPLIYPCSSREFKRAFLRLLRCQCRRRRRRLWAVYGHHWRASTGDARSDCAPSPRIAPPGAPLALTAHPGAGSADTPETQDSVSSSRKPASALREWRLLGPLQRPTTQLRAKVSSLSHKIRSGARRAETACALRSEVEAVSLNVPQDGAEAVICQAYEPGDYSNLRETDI
Method: Isometric contraction assays were performed using Male Wistar rats, aged 2.5-3 months euthanized as described above. The thoracic aorta (tissue enriched in functional α1D adrenergic receptors) was removed, free from adjacent connective and adipose tissues cut in 3 mm segments. […] The aort segments were then subjected to a preload of 20 mN per 60 minutes. After recovery of tissues maintained for 1 hour at rest, it was performed a contraction induced by phenylephrine (PE) 1 μM (α1 adrenergic receptors selective agonist). In this plateau contraction, in order to promote endothelium-dependent relaxation resulting from the activation of the enzyme endothelial nitric oxide synthase (eNOS) and subsequent release of nitric oxide (NO), acetylcholine 1 μM was added. Rings that relaxed at least 80% were considered to have intact endothelium, were used.
Then the preparation was washed and allowed to stand for 1 hour in order to recover the tissue. Then it was performed cumulative curves to phenylephrine (10^−9 to 10^−5 M) in the presence of propranolol 1 μM (β-adrenoceptor blocker receptors) before and after incubation for 1 hour of the LDT's at 10 or 50 nM. In parallel, a temporal control was performed to rule out any artifacts on the measured contraction, where was added only the vehicle (ultrapure water Milli Q®) instead of the substance to be tested. Strictly following the same protocol as the other tanks wherein it was added the LDT's.
The data were scanned in MacLab 8S system connected to the isometric tension transducer Grass FT-03, which recorded the voltage variation in milinewtons (mN) generated throughout the analysis. The digitized data were then analyzed by Chart 3.4/s software program (MacLab, Inc., USA). In the pharmacological screening process, the initial concentration of the used LDT's was 50 nM, which is considered as cut concentration, i.e., substances that have no effect at this concentration would not investigated in this test. […] The ratio of the EC50 value in these two conditions (with and without LDT) matches the third parameter, called “concentration ratio” (or RC).
log(CR−1)=log [B]−log KB (Equation 1)
Where CR=concentration ratio (EC′50/EC50); [B]=‘B’ antagonist concentration; KB=equilibrium dissociation constant of the antagonist ‘B’.
With this in view, the functional tests of contraction in isolated organ model were performed using these tissues. […] Similarly, targeting to rule out any artifacts on the measured contraction, a time control was performed where only the vehicle was added (ultrapure Mili Q® water) in place of the substance to be tested, strictly following the same protocol as the other vats were added to the LDT's (FIG. 1).

[3] = KB (nM), Table 1, test substance at 50 nM (a), 10 nM (b) or 2 nM (c)
[4] = log KB ± EPM (M), Table 1, test substance at 50 nM (a), 10 nM (b) or 2 nM (c)
[5] = Table 4, Cheng-Prusoff, read-out: Ki
[6] = Table 5, Cheng-Prusoff, read-out: α1B Ki
[7] = Table 2, 50 nM (62-69) or 10 nM (70, 39)
[8] = Table 2, 50 nM (62-69) or 10 nM (70, 39), read-out: KB

Structure (SMILES): COc1ccccc1N1CCN(CCc2ccccc2)CC1 [LDT 2]
- pIC50 [1]: 7.20
- pKi [1]: 7.31
- Kb [2, 3]: 2.15 nM
- Kb [2, 4]: 3.09 nM
- CR ± EPM ([2]; 50 nM): 24.3 ± 8.7

Structure (SMILES): COc1cccc(CCN2CCN(c3ccccc3OC)CC2)c1 [LDT 3]
- pIC50 [1]: 7.02
- pKi [1]: 7.13
- Kb [2, 3]: 1.78 nM
- CR ± EPM ([2]; 50 nM): 29.1 ± 1.8

Structure (SMILES): COc1ccc(CCN2CCN(c3ccccc3OC)CC2)cc1 [LDT 4]
- pIC50 [1]: 7.52
- pKi [1]: 7.63
- Kb [2, 3]: 3.14 nM
- Kb [2, 4]: 3.39 nM
- CR ± EPM ([2]; 50 nM): 16.9 ± 5.5

Structure (SMILES): COc1ccc(CCN2CCN(c3ccccc3OC)CC2)cc1OC [LDT 5]
- pKi [1, 5]: 7.91
- IC50 ([1]; Table 4): 15.8 nM
- Kb [2, 3]: 0.57 nM
- Kb [2, 4]: 0.589 nM
- CR ± EPM ([2]; 10 nM): 18.5 ± 2.5

Structure (SMILES): COc1ccccc1N1CCN(CCC2CCCCC2)CC1 [LDT 6]
- pKi [1, 5]: 6.81
- IC50 ([1]; Table 4): 200 nM
- affinity range for α1B adrenoceptor [1]: range μM

Structure (SMILES): CCOc1ccccc1N1CCN(CCc2ccc3c(c2)OCO3)CC1 [LDT 8]
- pIC50 [1]: 7.93
- pKi [1]: 8.04
- affinity range for α1B adrenoceptor [1]: nanomolar range
- Kb [2, 3]: 0.16 nM
- Kb [2, 4]: 0.166 nM
- CR ± EPM ([2]; 10 nM): 62.5 ± 15.5

Structure (SMILES): CCN1CCN(c2ccccc2)CC1 [LDT 39]
- α1B log IC50 (M) ([1]; Table 5): −6.29 ± 0.10 M
- pKi [1, 6]: 6.37
- CR ([2]; Table 2, LTD 10 nM (70 and 39)): 76.7
- log KB ± EPM (M) [2, 7]: −6.85 ± 0.08a M
- Kb [2, 8]: 141 nM
- log CE50 ± EPM (M) LDT ([2]; Table 2, phenylephrine curve in presence of LTD 10 nM (70 and 39)): −4.91 ± 0.05 M

Structure (SMILES): CCN1CCN(c2ccccc2OC)CC1 [LDT 62]
- α1B log IC50 (M) ([1]; Table 5): −6.27 ± 0.05 M
- pKi [1, 6]: 6.35
- CR ([2]; Table 2, LTD 50 nM (62-69)): 7
- log KB ± EPM (M) [2, 7]: −8.08 ± 0.02 M
- Kb [2, 8]: 8.3 nM
- log CE50 ± EPM (M) LDT ([2]; Table 2, phenylephrine curve in presence of LTD 50 nM (62-69)): −6.01 ± 0.06 M

From US20150011566A1, “N-PHENYLPIPERAZINE DERIVATIVES THAT ARE ANTAGONISTS OF A1A, A1D ADRENOCEPTORS AND 5-HT1A RECEPTORS FOR THE TREATMENT OF BENIGN PROSTATE HYPERPLASIA, PHARMACEUTICAL COMPOSITIONS CONTAINING THE SAME” (UNIVERSIDADE FEDERAL DO RIO DE JANEIRO-UFRJ, priority 2012, published 2015)
